Laboratory results: patent US11219613B2, “Pharmaceutical composition for preventing and treating liver diseases, containing, as active ingredient, cromolyn or pharmaceutically acceptable salt thereof” (ONCOCROSS CO., LTD., priority 2015, dated 2022)
Like-named read-outs stand apart in the source and are kept apart here.

Tests used:
[1] = test system: primary hepatocytes; test: wound assay, cell motility; format: cell-based, mouse
Procedure: (§1) Further, the experiment on hepatocytes was conducted by isolating the primary hepatocyte from the liver of a male C57BL6 mouse of around 6 weeks old.
The effect of cromolyn on restoration in hepatocytes was verified. […] Therefore, the present inventors confirmed the motility of primary hepatocytes by treating cromolyn in the presence and absence of TGF-β, which induces EMT.
(§2) Specifically, cell motility according to treatment with cromolyn was analyzed by using the known wound assay in the presence and absence of TGF-β (2 ng/mL), and the healing distance of the wound was measured by […]. Further, after treating with TGF-β and cromolyn, changes in the E-cadherin expression was verified, which was confirmed by treating primary hepatocytes with TGF-β (Carl Bio Chem, USA) and then conducting Western Blots using the antibody against E-cadherin (H-180) (Santa Cruz, USA). In addition, tubulin was used as the loading control.

[2] = test system: E-cadherin in primary hepatocytes; test: E-cadherin expression by Western Blots; format: cell-based, mouse; conditions: primary hepatocytes treated with TGF-β
Procedure: as §1, §2

[3] = test system: HSC-T6 cell line
Procedure: (§3) Specifically, while gradually increasing the amounts of cromolyn and ionomycin in an independent cell culture medium, the amount of LDH released into the above culture medium was measured, and the experiment was conducted by using a LDH cytotoxicity assay kit (Cayman Chemical, USA) according to the method provided by the manufacturer. First, the cells were grown in DMEM (Dulbecco's Modified Eagle Medium), to which 10% of heat inactivated fetal bovine serum and 1% of penicillin and streptomycin were added, at 37° C. and 5% CO2. Then, the above cells were seeded in a 96-well plate at a density of 2×10^4/well. Cromolyn and ionomycin were added thereto in increasing amounts. After 48 hours, 100 μL of the supernatant from each well was transferred to the new plates, 100 μL of the reaction solution was added to each well, the plate was incubated with gentle shaking on an orbital shaker for 30 minutes at the room temperature, and then the absorbance was measured at 490 nm with a plate reader.

[4] = test system: LX-2 cell line
Procedure: as §3

[5] = test system: HSC-T6 cell line; test: MTT assay, cell proliferation; format: cell-based; conditions: for effect on proliferation at low level: HSC-T6, 0.1 μM; for proliferation activity: HSC-T6, increasing levels, compared to untreated control
Procedure: (§4) To confirm the proliferation activity on hepatic stellate cells, a MTT (3-(4,5-dimethylthiazol-2-yl)-2,5-diphenyltetrazolium bromide) assay was performed, and the HSC-T6 and LX2 cell lines obtained from <Example 1> above were used as hepatic stellate cells.
(§5) Specifically, the MTT assay was performed by seeding the cell suspensions of each cell onto a 96-well plate at a density of 5×10^4 cells/well. Then, the MIT stock solution (5 mg/mL) in which MTT was dissolved in PBS (phosphate-buffered saline, pH 7.2) was prepared, and 15 μL of the MTT solution was added to each well after filtration. After culturing for 4 hours at 37° C. and 5% CO2, the reaction was terminated by adding 185 μL of solubilization solution to each well, and then the cell viability was measured at an absorbance of 620 nm using an ELISA (enzyme-linked immunosorbent assay) reader. Furthermore, cell viability was measured by calculating the ratio of absorbance of the cells treated/untreated with the candidate agents.

[6] = test system: LX2 cell line; test: MTT assay, cell proliferation; format: cell-based; conditions: for effect on proliferation at low level: LX2, 0.1 μM; for proliferation activity: LX2, increasing levels, compared to untreated control
Procedure: as §4, §5

[7] = test system: primary hepatocytes; test: SA-β-gal (Senescence β-galactosidase) staining; format: cell-based, mouse; conditions: three days in vitro culture
Procedure: as §1
Since senescence is a typical phenomenon of fibrosis, the anti-senescence effect of cromolyn on hepatocytes was confirmed by using β-galactosidase staining, which is a senescence index.
SA-β-gal (Senescence β-galactosidase) staining was performed by using the Senescence β-Galactosidase Staining Kit (Biovision, USA) according to the method provided by the manufacturer. Specifically, after washing with PBS, the cells were fixed by 2% formaldehyde and 0.2% glutaraldehyde in PBS for 15 minutes at room temperature. The fixed cells were washed with PBS, and incubated together with X-gal staining solution for 24 hours at 37° C. The cells were visualized, and photographs were taken with the Zeiss PALM laser capture microdissection microscope (Zeiss, Germany).

[8] = test system: HSC-T6 cell line; test: Sirius Red total collagen detection; format: cell-based; conditions: HSC-T6, increasing level, 48 hours
Procedure: (§6) To confirm whether cromolyn inhibits the production of TGF-β and the accumulation of collagen, which are known as the major secretion marker of activated HSCs, LX-2 and HCT-T6 cell lines were analyzed by ELISA. Specifically, collagen was detected by using the Sirius Red Total Collagen Detection Kit (Chondrex, USA). The suspended cells were seeded in a 24-well plate at a density of 1×10^4 cells/well, and treated with various amounts of cromolyn for 48 hours. Then, the diluted solutions or standard samples were added to 1.5-mL centrifuge tubes in duplicate. Subsequently, each tube was incubated for 20 minutes at room temperature together with 500 μl of the Sirius Red solution. The supernatant was removed, the tubes were washed twice, and 200 μL of the final supernatant was transferred to a 96-well plate. The optical density was measured at 510-550 nm.

[9] = test system: LX-2 cell line; test: Sirius Red total collagen detection; format: cell-based; conditions: LX-2, increasing level, 48 hours
Procedure: as §6

[10] = test system: HSC-T6 cell line; test: TGF-β production by ELISA; format: cell-based; conditions: HSC-T6, different concentrations
Procedure: (§7) To confirm whether cromolyn inhibits the production of TGF-β and the accumulation of collagen, which are known as the major secretion marker of activated HSCs, LX-2 and HCT-T6 cell lines were analyzed by ELISA.

[11] = test system: LX-2 cell line; test: TGF-β production by ELISA; format: cell-based; conditions: LX-2, different concentrations
Procedure: as §7

| SMILES | motility of hepatocytes ([1]; absence of TGF-β, compared to untreated control) | inhibition of migration activity of hepatocytes in terms of migration distance ([1]; presence of TGF-β (2 ng/mL), 48 hours) [%] | expression of E-cadherin [2] | cytotoxicity (LDH release) ([3]; rat, 48 h) | cytotoxicity (LDH release) ([4]; human, 48 h) | effect on proliferation at low level [5] | proliferation activity [5] | effect on proliferation at low level [6] | proliferation activity [6] | number of β-galactosidase-positive cells [7] | released collagen [8] | released collagen [9] | production of TGF-β [10] | production of TGF-β [11] | cytotoxicity (LDH release) ([3]; HSC-T6, increasing amounts, 48 hours (FIG. 2C)) | cytotoxicity (LDH release) ([4]; LX-2, increasing amounts, 48 hours (FIG. 2D)) |
| --- | --- | --- | --- | --- | --- | --- | --- | --- | --- | --- | --- | --- | --- | --- | --- | --- |
| O=C(O)c1cc(=O)c2c(OCC(O)COc3cccc4oc(C(=O)O)cc(=O)c34)cccc2o1 [cromolyn, cromoglicic acid] | did not show a significant difference | 15 | significantly inhibit the decrease in the expression of E-cadherin in a concentration-dependent manner | no cytotoxicity except at the high level (10 μM) | no cytotoxicity except at the high level (10 μM) | did not show a significant effect | decrease | anti-proliferation effect was confirmed | decrease | decrease in a concentration-dependent manner | significantly decreases | significantly decreases | inhibit the production of TGF-β in a concentration-dependent manner | inhibit the production of TGF-β in a concentration-dependent manner |  |  |
| C[C@H](CCC(=O)O)C[C@H](C)C[C@H](C)C(=O)/C=C(\O)[C@H](C)C[C@H](C)C/C=C/[C@@H](C)[C@@H](O)[C@@H](C)[C@@H](O)C[C@@H]1CC[C@@](C)([C@H]2CC[C@@](C)([C@@H](C)O)O2)O1 [ionomycin] |  |  |  |  |  | did not show a significant effect | decrease | anti-proliferation effect was confirmed | decrease |  |  |  |  |  | induce cell death in a concentration dependent manner | induce cell death in a concentration dependent manner |
